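Growth conditions: 96-well plates. Treatment: test compound, 48 hours, 5 concentrations. Analysis: linear interpolation between bracketing concentrations; unreached endpoints set to highest concentration. Abbreviation: GI50, concentration required for 50% inhibition of growth. TGI: concentration producing complete growth inhibition.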
Legend:
Experiment in all cases: inhibition of tumour cell growth, NCI panel, 48 h
[1] = tested on: HCT-15 colon
[2] = tested on: OVCAR-4 ovarian
[3] = tested on: NCI/ADR-RES ovarian
[4] = tested on: MALME-3M melanoma
[5] = tested on: SF-539 CNS
[6] = tested on: HOP-62 NSCLC
[7] = tested on: MOLT-4 leukemia
[8] = tested on: UACC-257 melanoma
[9] = tested on: PC-3 prostate
[10] = tested on: K-562 leukemia
[11] = tested on: NCI-H226 lung
[12] = tested on: SF-295 CNS
[13] = tested on: NCI-H23 lung
[14] = tested on: HOP-92 NSCLC
[15] = tested on: SNB-75 CNS
[16] = tested on: SR leukemia
[17] = tested on: SF-268 CNS
[18] = tested on: SN12C renal
[19] = tested on: KM12 colon
[20] = tested on: SK-MEL-5 melanoma
[21] = tested on: T-47D breast
[22] = tested on: ACHN renal
[23] = tested on: HS 578T breast
[24] = tested on: NCI-H522 lung
[25] = tested on: DU-145 prostate
[26] = tested on: MCF7 breast
[27] = tested on: MDA-MB-435
[28] = tested on: HT29 colon
[29] = tested on: NCI-H460 lung
[30] = tested on: SK-OV-3 ovarian
[31] = tested on: UO-31 renal
[32] = tested on: SNB-19 CNS
[33] = tested on: RPMI-8226 leukemia
[34] = tested on: EKVX NSCLC
[35] = tested on: IGROV1 ovarian
[36] = tested on: HL-60(TB) leukemia
[37] = tested on: U251 CNS
[38] = tested on: MDA-MB-231 breast
[39] = tested on: SK-MEL-2 melanoma
[40] = tested on: SK-MEL-28 melanoma
[41] = tested on: UACC-62 melanoma
[42] = tested on: CAKI-1 renal
[43] = tested on: TK-10 renal
[44] = tested on: OVCAR-5 ovarian
[45] = tested on: A549 NSCLC
[46] = tested on: HCC-2998 colon
[47] = tested on: 786-0 renal
[48] = tested on: OVCAR-8 ovarian
[49] = tested on: A498 renal
[50] = tested on: RXF 393 renal
[51] = tested on: BT-549 breast

`C=C(C=O)[C@@H]1CC=C(C=O)CC1` gave a GI50 [1] of 2400 nM, a TGI [1] of 10.1 µM and a GI50 [2] of 4.19 µM. The TGI [2] was greater than 100 µM, the GI50 [3] was 3.89 µM and the TGI [3] was greater than 100 µM. For the same molecule, the GI50 [4] was 4.39 µM, the TGI [4] was greater than 26 µM and the GI50 [5] was 9.88 µM. The TGI [5] was 33.5 µM, the GI50 [6] was 24.8 µM and the TGI [6] was greater than 76.7 µM. It also gave a GI50 [7] of 3.69 µM, a TGI [7] greater than 100 µM and a GI50 [8] of 15 µM. For the same molecule, the TGI [8] was 57.9 µM, the GI50 [9] was 4.12 µM and the TGI [9] was 24.2 µM. It also gave a GI50 [10] of 1700 nM, a TGI [10] greater than 100 µM and a GI50 [11] of 21.1 µM. It also gave a TGI [11] of 98.7 µM, a GI50 [12] of 12 µM and a TGI [12] of 97.3 µM. It also gave a GI50 [13] of 3.83 µM, a TGI [13] greater than 100 µM and a GI50 [14] of 2380 nM. For the same molecule, the TGI [14] was 7.58 µM, the GI50 [15] was 15.9 µM and the TGI [15] was greater than 100 µM. The GI50 [16] was 5.48 µM, the TGI [16] was greater than 100 µM and the GI50 [17] was 2940 nM. The TGI [17] was 16.1 µM, the GI50 [18] was 4.31 µM and the TGI [18] was 33.9 µM. The GI50 [19] was 4.21 µM, the TGI [19] was 27.8 µM and the GI50 [20] was 3.9 µM. It also gave a TGI [20] greater than 46.5 µM, a GI50 [21] of 3.06 µM and a TGI [21] of 26.4 µM. For the same molecule, the GI50 [22] was 2750 nM, the TGI [22] was 9.65 µM and the GI50 [23] was 3.36 µM. The TGI [23] was 42.4 µM, the GI50 [24] was 37.8 µM and the TGI [24] was greater than 100 µM. For the same molecule, the GI50 [25] was 3.44 µM, the TGI [25] was 11.2 µM and the GI50 [26] was 2960 nM. It also gave a TGI [26] greater than 35.5 µM, a GI50 [27] of 4.21 µM and a TGI [27] of 74.3 µM. The GI50 [28] was 3.54 µM, the TGI [28] was greater than 100 µM and the GI50 [29] was 13.8 µM. For the same molecule, the TGI [29] was greater than 77.2 µM, the GI50 [30] was 20.1 µM and the TGI [30] was 50.5 µM. The GI50 [31] was 5.3 µM, the TGI [31] was greater than 76 µM and the GI50 [32] was 17.4 µM. For the same molecule, the TGI [32] was 71.2 µM, the GI50 [33] was 2140 nM and the TGI [33] was 6.63 µM. It also gave a GI50 [34] of 14.5 µM, a TGI [34] of 67.6 µM and a GI50 [35] of 3.19 µM. It also gave a TGI [35] greater than 23.3 µM, a GI50 [36] of 2480 nM and a TGI [36] greater than 100 µM. The GI50 [37] was 2400 nM, the TGI [37] was 6.71 µM and the GI50 [38] was 6.88 µM. For the same molecule, the TGI [38] was 20.1 µM, the GI50 [39] was 25.6 µM and the TGI [39] was 92.5 µM. For the same molecule, the GI50 [40] was 2430 nM, the TGI [40] was 5.87 µM and the GI50 [41] was 3.14 µM. The TGI [41] was 12.2 µM, the GI50 [42] was 29.1 µM and the TGI [42] was greater than 100 µM. It also gave a GI50 [43] of 8.76 µM, a TGI [43] of 54.6 µM and a GI50 [44] of 26.5 µM. It also gave a TGI [44] of 73 µM, a GI50 [45] of 35.1 µM and a TGI [45] greater than 91.7 µM. It also gave a GI50 [46] of 11.2 µM, a TGI [46] of 93.5 µM and a GI50 [47] of 16.8 µM. For the same molecule, the TGI [47] was 80 µM, the GI50 [48] was 3.69 µM and the TGI [48] was greater than 100 µM. It also gave a GI50 [49] of 28.8 µM, a TGI [49] of 77.8 µM and a GI50 [50] of 3.72 µM. For the same molecule, the TGI [50] was greater than 100 µM, the GI50 [51] was 3.26 µM and the TGI [51] was greater than 30.5 µM.
